The values below come from patent US12428415B2, “Matriptase 2 inhibitors and uses thereof” (Disc Medicine, Inc., priority 2018, dated 2025).

The target in the first test is T1, Human Recombinant Matriptase 2 (Homo sapiens, UniProt Q8IU80).
T1 construct: purchased Enzo Life Sciences (an in-house preparation was also used) ALX-201-752-1
T1 sequence (Q8IU80 1-811): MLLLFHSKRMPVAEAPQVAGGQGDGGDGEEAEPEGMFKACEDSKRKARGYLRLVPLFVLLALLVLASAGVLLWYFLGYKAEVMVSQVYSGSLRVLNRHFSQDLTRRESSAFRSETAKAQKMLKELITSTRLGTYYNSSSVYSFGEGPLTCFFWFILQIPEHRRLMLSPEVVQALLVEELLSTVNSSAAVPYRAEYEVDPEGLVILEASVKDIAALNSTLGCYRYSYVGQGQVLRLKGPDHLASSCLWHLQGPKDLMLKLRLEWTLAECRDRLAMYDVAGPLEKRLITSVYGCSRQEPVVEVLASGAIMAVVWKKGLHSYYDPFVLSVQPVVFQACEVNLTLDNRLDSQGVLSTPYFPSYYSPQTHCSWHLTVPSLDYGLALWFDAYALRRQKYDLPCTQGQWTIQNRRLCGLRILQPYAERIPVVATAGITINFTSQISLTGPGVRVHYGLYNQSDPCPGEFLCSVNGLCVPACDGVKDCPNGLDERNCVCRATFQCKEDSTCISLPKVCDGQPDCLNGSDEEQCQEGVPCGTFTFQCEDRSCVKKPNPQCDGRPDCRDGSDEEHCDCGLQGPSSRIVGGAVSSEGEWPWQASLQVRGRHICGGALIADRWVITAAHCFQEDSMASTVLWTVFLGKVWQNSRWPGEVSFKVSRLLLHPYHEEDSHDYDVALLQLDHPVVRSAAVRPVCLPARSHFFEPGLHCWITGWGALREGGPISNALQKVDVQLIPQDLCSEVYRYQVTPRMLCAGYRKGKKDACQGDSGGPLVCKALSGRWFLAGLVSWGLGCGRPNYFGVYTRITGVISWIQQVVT
Put plainly: Matriptase 2 fluorescence based inhibition assay, Method A (100 mM TRIS pH 9, 1 mg/mL BSA). Format: biochemical. The conditions noted are these: 1 uM; Assay Used A; read-out: Mar-2 % inhibition at 1 uM. On the procedure: Test compounds were evaluated for their potential to inhibit Human Recombinant Matriptase 2 (in-house and commercial protein from Enzo Life Sciences—cat log -ALX-201-752-1) using fluorescence based assay. The concentration of Recombinant Matriptase 2 and the substrate used in the assay was: 7 nM (commercial) and 15 nM (Inhouse Matriptase 2) and 100 μM (Boc-Gln-Ala-Arg-7-amido-4-methyl coumarin hydrobromide—Cat log: B4153-Sigma) respectively. The assay buffer used was 100 mM TRIS pH 9, 1 mg/mL BSA. The assay was performed using 384 well black flat bottom plate from grenier (Cat log: 781076) at 25° C. The enzyme and compound was preincubated for 30 mins, plate was read 60 mins after substrate addition at wavelength Ex: 360/Em: 480 nm. The final assay volume was 20 μl. Stock solution of compounds were initially prepared in DMSO and appropriate dilutions were made for screening and IC50 determination (final DMSO conc in the assay was 1%). All the measurements were carried out using the Spectramax M5, Molecular devices. The compounds were screened at 1 and 10 μM concentration and IC50 was determined for the interested compounds.
To determine IC50 values, dose response curves were generated by plotting percentage inhibition as a function of inhibitor concentration and the data was fitted to sigmoidal non-linear regression equation (variable slope) using Graph Pad prism software V7.
The term inhibition denotes how much of the control response was suppressed. For `CCc1ccc(-c2cccc(CCn3c(C(=O)N[C@H]4CC[C@H](N)CC4)cc4ccc(C(=N)N)cc43)c2)cc1` [Compound I-35], the inhibition at 1 µM was 25 to 50%.

In the case of `C[C@H]1CC[C@H](NC(=O)c2cc3ccc(C(=N)N)cc3n2Cc2ccc(C(N)=O)cc2)CC1` [Compound I-186], the inhibition at 1 µM is 0 to 25%.

Take `N=C(N)c1ccc2cc(C(=O)Nc3cccc(-n4cccn4)c3)n(Cc3ccc(C(N)=O)cc3)c2c1` [Compound I-132]: the inhibition at 1 µM was 25 to 50%.

In the case of `N=C(N)c1ccc2cc(C(=O)Nc3ccc(F)c(N4CCCC4)c3)n(Cc3ccc(C(N)=O)cc3)c2c1` [Compound I-155], the inhibition at 1 µM is 0 to 25%.

Regarding `N=C(N)c1ccc2cc(C(=O)Nc3cccc(N4CC[C@H](F)C4)c3)n(Cc3ccc(C(N)=O)cc3)c2c1` [Compound I-122], the inhibition at 1 µM is 0 to 25%.

Regarding `N=C(N)c1ccc2cc(C(=O)N[C@H]3CC[C@H](N)CC3)n(Cc3ccc(C(=O)O)cc3)c2c1` [Compound I-20, 4-((2-(((1r,4r)-4-aminocyclohexyl)carbamoyl)-6-carbamimidoyl-1H-indol-1-yl)methyl)benzoic Acid], the inhibition at 1 µM fell in the range of 25 to 50%.

As for `N=C(N)c1ccc2cc(C(=O)N[C@H]3CC[C@H](N)CC3)n(CCc3cccc(Br)c3)c2c1` [Compound I-31], the inhibition at 1 µM was in the range of 25 to 50%.

As for `CSc1ccc(Cn2c(C(=O)NC3CCC(N)CC3)cc3ccc(C(=N)N)cc32)cc1` (centres unmarked) [Compound I-13], the inhibition at 1 µM fell in the range of 50 to 75%.

With `N=C(N)c1ccc2cc(C(=O)Nc3ccc(F)cc3)n(Cc3ccc(C(N)=O)cc3)c2c1` [Compound I-59, 6-Carbamimidoyl-1-(4-carbamoylbenzyl)-N-(4-fluorophenyl)-1H-indole-2-carboxamide], the inhibition at 1 µM fell in the range of 0 to 25%.

Turning to `CCCOC(=O)NC(=N)c1ccc2cc(C(=O)Nc3cccc(N4CCCC4)c3)n(Cc3ccc(C(N)=O)cc3)c2c1` [Compound I-162], the inhibition at 1 µM lay in the range of 0 to 25%.

For `N=C(N)c1ccc2cc(C(=O)NCc3ccncc3)n(Cc3ccc(C(N)=O)cc3)c2c1` [Compound I-168], the inhibition at 1 µM fell in the range of 25 to 50%.

As for `N=C(N)c1ccc2cc(C(=O)NC3CCC(N)CC3)n(Cc3ccc(OC(F)(F)F)cc3)c2c1` (centres unmarked) [Compound I-11], the inhibition at 1 µM was 25 to 50%.

`CCCCCCOC(=O)NC(=N)c1ccc2cc(C(=O)Nc3cccc(N4CCCC4)c3)n(Cc3ccc(C(N)=O)cc3)c2c1` [Compound I-159]: the inhibition at 1 µM lay in the range of 0 to 25%.

`N=C(N)c1ccc2cc(C(=O)NCc3cccc(F)c3)n(Cc3ccc(C(N)=O)cc3)c2c1` [Compound I-76]: the inhibition at 1 µM was in the range of 0 to 25%.

As for `N=C(N)c1ccc2cc(C(=O)Nc3ccc(N4CCC(F)(F)C4)cc3)n(Cc3ccc(C(N)=O)cc3)c2c1` [Compound I-97], the inhibition at 1 µM lay within 25 to 50%.

`N=C(NC(=O)OCc1ccccc1)c1ccc2cc(C(=O)Nc3cccc(N4CCCC4)c3)n(Cc3ccc(C(N)=O)cc3)c2c1` [Compound I-143]: the inhibition at 1 µM lay in the range of 0 to 25%.

As for `N=C(N)c1ccc2cc(C(=O)NCc3cccc(N4CCCC4)c3)n(Cc3ccc(C(N)=O)cc3)c2c1` [Compound I-100], the inhibition at 1 µM was 25 to 50%.

Consider `NC(=O)c1ccc(Cn2c(C(=O)Nc3cccc(-c4ccccn4)c3)cc3ccc(C(N)=O)cc32)cc1` [Compound I-136, 1-(4-Carbamoylbenzyl)-N^2-(3-(pyridin-2-yl)phenyl)-1H-indole-2,6-dicarboxamide], for which the inhibition at 1 µM was 0 to 25%.

Consider `N=C(N)c1ccc2cc(C(=O)N[C@H]3CC[C@H](N)CC3)n(Cc3ccc(C(F)(F)F)cc3)c2c1` [Compound I-4], for which the inhibition at 1 µM lay in the range of 25 to 50%.

Take `N=C(N)c1ccc2cc(C(=O)NCC3CCC(O)CC3)n(CCS(=O)(=O)c3ccccc3)c2c1` (centres unmarked) [Compound I-52]: the inhibition at 1 µM was in the range of 0 to 25%.

With `N=C(N)c1ccc2cc(C(=O)Nc3cc(F)ccc3F)n(Cc3ccc(C(N)=O)cc3)c2c1` [Compound I-115], the inhibition at 1 µM lay within 0 to 25%.

For `C[C@H](NC(=O)c1cc2ccc(C(=N)N)cc2n1Cc1ccc(C(N)=O)cc1)c1ccc(F)cc1` [Compound I-63], the inhibition at 1 µM was 0 to 25%.

Take `N=C(N)c1ccc2cc(C(=O)Nc3ccc(N4CCCC4)cc3)n(CCS(=O)(=O)c3ccccc3)c2c1` [Compound I-44]: the inhibition at 1 µM was 0 to 25%.

The test is the same for the next values; noted with them: at 1 uM; Assay Used = A; read-out: Mar-2 % inhibition at 1 uM.
As for `CC1CCC(NC(=O)c2cc3ccc(C(=N)N)cc3n2Cc2ccc(C(=O)NCCN)cc2)CC1` (centres unmarked) [Compound I-224, 1-(4-((2-Aminoethyl)carbamoyl)benzyl)-6-carbamimidoyl-N-(4-methylcyclohexyl)-1H-indole-2-carboxamide], the inhibition at 1 µM lay within 0 to 25%.

For `N=C(N)c1ccc2cc(C(=O)N3CCC(F)(F)CC3)n(Cc3ccc(C(N)=O)cc3)c2c1` [Compound I-327], the inhibition at 1 µM is 0 to 25%.

Turning to `N=C(N)c1ccc2cc(C(=O)N[C@@H]3c4ccccc4C[C@H]3O)n(Cc3ccc(C(N)=O)cc3)c2c1` [Compound I-203], the inhibition at 1 µM lay within 0 to 25%.

`N=C(N)c1ccc2cc(C(=O)N3CCC(CCN)CC3)n(S(=O)(=O)c3ccc4ccccc4c3)c2c1` [Compound I-335]: the inhibition at 1 µM was in the range of 0 to 25%.

Regarding `N=C(N)c1ccc2cc(C(=O)N3CCC(F)(F)C3)n(Cc3ccc(-c4ccccc4)cc3)c2c1` [Compound I-310], the inhibition at 1 µM lay within 0 to 25%.

Consider `Cc1csc(NC(=O)c2cc3ccc(C(=N)N)cc3n2Cc2ccc(C(N)=O)cc2)n1` [Compound I-266], for which the inhibition at 1 µM was in the range of 0 to 25%.

With `N=C(N)c1ccc2cc(C(=O)N[C@H]3CC[C@H](NC(=O)CCN)CC3)n(Cc3ccc(Oc4ccccc4)cc3)c2c1` [Compound I-242, N-((1r,4r)-4-(3-Aminopropanamido)cyclohexyl)-6-carbamimidoyl-1-(4-phenoxybenzyl)-1H-indole-2-carboxamide], the inhibition at 1 µM lay within 25 to 50%.

With `N=C(N)c1ccc2cc(C(=O)N3CCC(CCN)CC3)n(Cc3ccc(C(F)(F)F)cc3)c2c1` [Compound I-278], the inhibition at 1 µM lay in the range of 0 to 25%.

As for `NCCC(=O)Nc1cccc(Cn2c(C(=O)N3CCC(CCN)CC3)cc3ccc(/C(N)=N/O)cc32)c1` [Compound I-381], the inhibition at 1 µM lay in the range of 0 to 25%.

As to `CCOc1ccc(-c2cccc(Cn3c(C(=O)N[C@H]4CC[C@H](N)CC4)cc4ccc(C(=N)N)cc43)c2)cc1` [Compound I-239], the inhibition at 1 µM is 25 to 50%.

Turning to `N=C(N)c1ccc2cc(C(=O)NCC3CCCCC3)n(Cc3ccc(C(=O)NCCO)cc3)c2c1` [Compound I-222, 6-Carbamimidoyl-N-(cyclohexylmethyl)-1-(4-((2-hydroxyethyl)carbamoyl)benzyl)-1H-indole-2-carboxamide], the inhibition at 1 µM lay in the range of 0 to 25%.

For `CC(C)CCn1c(C(=O)N2CCC(F)(F)C2)cc2ccc(C(=N)N)cc21` [Compound I-273], the inhibition at 1 µM lay within 0 to 25%.

Consider `N=C(N)c1ccc2c(N)c(C(=O)N[C@H]3CC[C@H](NC(=O)O)CC3)n(Cc3ccc(Oc4ccccc4)cc3)c2c1` [Compound I-253, ((1r,4r)-4-(3-Amino-6-carbamimidoyl-1-(4-phenoxybenzyl)-1H-indole-2-carboxamido)-cyclohexyl) carbamic Acid], for which the inhibition at 1 µM was 0 to 25%.

As to `CN(CC1CCCCC1)C(=O)c1cc2ccc(C(=N)N)cc2n1Cc1ccc(C(N)=O)cc1` [Compound I-232, 6-Carbamimidoyl-1-(4-carbamoylbenzyl)-N-(cyclohexylmethyl)-N-methyl-1H-indole-2-carboxamide], the inhibition at 1 µM lay within 0 to 25%.

`N=C(N)c1ccc2cc(C(=O)N[C@H]3CC[C@H](N)CC3)n(Cc3ccc(-c4ccccc4)cc3)c2c1` [Compound I-234]: the inhibition at 1 µM is 25 to 50%.

With `N=C(N)c1ccc2cc(C(=O)N3CC[C@H](F)C3)n(Cc3ccc(NC(=O)CCN)cc3)c2c1` [Compound I-375], the inhibition at 1 µM was in the range of 0 to 25%.

Turning to `N=C(N)c1ccc2c(N)c(C(=O)N3CCC(CCN)CC3)n(Cc3ccc(Oc4ccccc4)cc3)c2c1` [Compound I-348], the inhibition at 1 µM was 0 to 25%.

Take `N=C(N)c1ccc2cc(C(=O)N3CCC(CCN)CC3)n(Cc3ccc(OC(F)(F)F)cc3)c2c1` [Compound I-288]: the inhibition at 1 µM fell in the range of 0 to 25%.
